Source: article PMC5756575, “In Vitro Biotransformation, Safety, and Chemopreventive Action of Novel 8-Methoxy-Purine-2,6-Dione Derivatives” (Applied Biochemistry and Biotechnology, 2017)

Legend:
rat liver microsomes = experiment: Microsomal stability assay; assay type: in vitro ADME; settings: rat microsomal biotransformation after 30 min of incubation
Procedure: Compounds 1 and 3 were studied in a biotransformation assay using rat liver microsomes following procedures described previously. The reagents used in this assay were levallorphan (internal standard) and NADPH-regenerating system, which contained phosphate buffer (pH 7.4), NADP^+, glucose-6-phosphate, and glucose-6-phosphate dehydrogenase. The final protein concentration in the assay was 0.4 mg/mL. Compounds 1 and 3 were tested at a final concentration of 20 μM.
The amount of a parental compound remaining in a solution after biotransformation was monitored using LC-MS/MS as described previously in “Cunninghamella Biotransformation Assay.” Graphs representing ln of percentage of parent compound remaining versus incubation time were drawn to calculate in vitro half-time (t1/2) from the slope of linear regression. To obtain intrinsic clearance (Clint) of a tested compound in rat liver microsomal assay, t1/2 previously calculated was substituted at the equation Clint = [(Vmic/Pmic) × 0.693/t1/2], being Vmic and Pmic the volume of incubation in microliters and the amount of incubated protein in milligrams, respectively.
(§1) Agilent 1100 HPLC system (Agilent Technologies, Waldbronn, Germany) equipped with a Xbridge™ C18 analytical column (2.1 × 30 mm, […]; Waters, Dublin, Ireland) was used in the chromatographic separation of LC-MS/MS analysis. An elution gradient of acetonitrile and water, with 0.1% of formic acid, was used as a mobile phase. MS spectra were taken at Applied Biosystems MDS Sciex API 200 triple quadrupole mass analyzer (Concord, Ontario, Canada) with an electrospray ionization (ESI) interface between HPLC and MS.

[1] = tested on: Cunninghamella echinulata NRRL 1384; experiment: Cunninghamella biotransformation assay, C. echinulata; assay type: in vitro ADME; settings: 0.5 mg/mL, 7-day incubation, LC-MS/MS
Procedure: Three different strains of Cunninghamella were used: Cunninghamella echinulata NRRL 1384, Cunninghamella blakesleeana 1908 DMS, and Cunninghamella elegans 1906 DMS. The first was provided by Dr. A.J. Carnell (University of Liverpool, UK), whereas the two remaining were purchased from Deutsche Sammlung von Mikroorganismen und Zellkulturen GmbH (DMSZ, Braunschweig, Germany).
Cunninghamella strains were cultivated on solid potato dextrose agar (PDA) plates at 28 °C. After 4 days, a liquid fermentation basal medium was prepared by the addition of 6 g of D-glucose, 1.5 g of NaCl, 1.5 g of yeast extract from Saccharomyces cerevisiae, and 1.5 g of K2HPO4 to 300 mL of distilled water. Aliquots of 24.5 mL of medium were inoculated with 300 μL of suspension of fungal spores obtained after wetting colonies in PDA. The fungi were incubated with shaking until the formation of spherical clumps.
Compounds 2–4 were evaluated in this experiment. Once microorganisms formed spherical clumps in the preliminary incubation, the corresponding tested compound was added to the broth and the mixture was incubated for 7 days. Two control experiments were also performed, in the absence of compound and fungus, respectively. Biotransformation progress was monitored by TLC and by liquid chromatography electrospray ionization-tandem mass spectrometry (LC-MS/MS). Monitoring was performed at four different incubation times: 30 min, 3 days, 5 days, and 7 days.
To analyze metabolites in LC-MS/MS, an aliquot of 500 μL of filtered sample was taken and extracted with 500 μL of dichloromethane. The organic fraction was dried with sodium sulfate, filtered, and evaporated. The obtained residue was analyzed in LC-MS/MS. At the end of experiment, all the remaining medium was extracted with 25 mL of dichloromethane after separating the fungal clumps by filtration over cellulose filters.
as §1

Compound | % content among metabolites (rat liver microsomes) [%] | % of compound/metabolite in C. echinulata [1] [%]
COc1nc2c(c(=O)n(C)c(=O)n2C)n1CCCC(N)=O [3-M1] | 100 | 1.5
COc1nc2c(c(=O)n(C)c(=O)n2C)n1CCCC(=O)NCc1ccccc1O [3-M2] |  | 1.6
COc1nc2c(c(=O)n(C)c(=O)n2C)n1CCCC(=O)NCc1cccc(O)c1 [3-M3] |  | 0.3
